# According to article PMC9090415, “Discovery of small molecule inhibitors of Plasmodium falciparum apicoplast DNA polymerase” (Journal of Enzyme Inhibition and Medicinal Chemistry, 2022):
# Target: P. falciparum apicoplast DNA polymerase (Pf-apPOL) (Plasmodium falciparum, UniProt Q8ILY1)
# Test: Fluorescence-based high-throughput DNA polymerase assay (molecular beacon), primary screen and dose-response
# Assay type: biochemical
# Conditions: for DNA Pol: 90 min, 10 µM; for IC50: supplemental file 2, sheet IC50 nontoxic compounds, Pf-apPOL
# How it was run: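 Single-point screening used 10 µM compound with 20 nM polymerase, 20 nM hairpin substrate and 6 µM dNTPs for 90 min at 25 °C. Confirmatory titrations (2.5–80 µM) followed fluorescence at three times, and IC50 was derived from a fit including a cooperativity term n.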
# [1] = DRC-2, 5', concentration 20 (unit not given)
# [2] = DRC-2, 5', concentration 40 (unit not given)
# [3] = DRC-2, 90', concentration 10 (unit not given)
# [4] = primary screen value of the 186 hits, unit not given
# [5] = primary screen value, head "DNA Pol", unit not given
# P. falciparum apicoplast DNA polymerase (Pf-apPOL), sequence (Q8ILY1 entry or part of it): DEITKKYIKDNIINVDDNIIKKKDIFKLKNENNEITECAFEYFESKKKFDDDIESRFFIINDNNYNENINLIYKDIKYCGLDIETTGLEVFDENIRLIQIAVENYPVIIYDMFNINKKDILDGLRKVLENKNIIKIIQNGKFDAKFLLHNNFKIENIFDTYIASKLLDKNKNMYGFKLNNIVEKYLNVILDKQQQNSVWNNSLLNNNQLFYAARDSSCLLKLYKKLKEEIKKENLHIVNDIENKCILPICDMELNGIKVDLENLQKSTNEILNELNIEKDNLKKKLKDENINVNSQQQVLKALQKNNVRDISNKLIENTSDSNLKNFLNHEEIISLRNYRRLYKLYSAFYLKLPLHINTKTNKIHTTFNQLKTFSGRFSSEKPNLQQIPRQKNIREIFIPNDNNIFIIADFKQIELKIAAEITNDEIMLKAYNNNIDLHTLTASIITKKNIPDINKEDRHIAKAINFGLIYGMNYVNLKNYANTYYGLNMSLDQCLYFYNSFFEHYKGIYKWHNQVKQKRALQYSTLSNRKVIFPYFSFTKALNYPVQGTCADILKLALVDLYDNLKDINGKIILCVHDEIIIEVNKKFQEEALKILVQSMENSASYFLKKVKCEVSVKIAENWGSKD
smiles,measurement,setting,value
O=c1[nH]c2ccc(Br)cc2c(-c2ccccc2)c1C1=NNC(c2ccco2)C1 (centres unmarked) [KU0045540],% inhibition Apo pol 10',"DRC-1, concentration 2.5",38.7065%
same,% inhibition Apo pol 10',"DRC-1, concentration 5",32.1153%
same,% inhibition Apo pol 10',"DRC-1, concentration 10",58.5243%
same,% inhibition Apo pol 10',"DRC-1, concentration 20",75.2705%
same,% inhibition Apo pol 10',"DRC-1, concentration 40",80.4182%
same,% inhibition Apo pol 10',"DRC-1, concentration 80",78.0702%
same,% inhibition Apol 90',"DRC-1, 90', concentration 2.5",12.887%
same,% inhibition Apol 90',"DRC-1, 90', concentration 5",9.899%
same,% inhibition Apol 90',"DRC-1, 90', concentration 10",32.8734%
same,% inhibition Apol 90',"DRC-1, 90', concentration 20",57.4465%
same,% inhibition Apol 90',"DRC-1, 90', concentration 40",76.3337%
same,% inhibition Apol 90',"DRC-1, 90', concentration 80",82.7097%
same,% inhibition apPOL 180',"DRC-1, 180', concentration 2.5",0.7615%
same,% inhibition apPOL 180',"DRC-1, 180', concentration 5",-2.038%
same,% inhibition apPOL 180',"DRC-1, 180', concentration 10",16.3913%
same,% inhibition apPOL 180',"DRC-1, 180', concentration 20",40.539%
same,% inhibition apPOL 180',"DRC-1, 180', concentration 40",67.9853%
same,% inhibition apPOL 180',"DRC-1, 180', concentration 80",81.6451%
same,% inhibition Apo pol 5',"DRC-2, 5', concentration 2.5 (unit not given)",15%
same,% inhibition Apo pol 5',[1],65%
same,% inhibition Apo pol 5',[2],65%
same,% inhibition Apol 40',"DRC-2, 40', concentration 2.5 (unit not given)",15%
same,% inhibition Apol 40',"DRC-2, 40', concentration 10 (unit not given)",49%
same,% inhibition Apol 40',"DRC-2, 40', concentration 20 (unit not given)",77%
same,% inhibition ApPOL 90',[3],49%
same,% inhibition ApPOL 90',"DRC-2, 90', concentration 20 (unit not given)",77%
same,% inhibition ApPOL 90',"DRC-2, 90', concentration 80 (unit not given)",72%
same,% inhibition apPOL 180',"DRC-2, 180', concentration 20 (unit not given)",72%
same,% inhibition Apo pol 5',"DRC-2, 5', concentration 2.5",15%
same,% inhibition Apo pol 5',"DRC-2, 5', concentration 5",27%
same,% inhibition Apo pol 5',"DRC-2, 5', concentration 10",40%
same,% inhibition Apo pol 5',"DRC-2, 5', concentration 20",65%
same,% inhibition Apo pol 5',"DRC-2, 5', concentration 40",65%
same,% inhibition Apo pol 5',"DRC-2, 5', concentration 80",39%
same,% inhibition Apol 40',"DRC-2, 40', concentration 2.5",15%
same,% inhibition Apol 40',"DRC-2, 40', concentration 5",33%
same,% inhibition Apol 40',"DRC-2, 40', concentration 10",49%
same,% inhibition Apol 40',"DRC-2, 40', concentration 20",77%
same,% inhibition Apol 40',"DRC-2, 40', concentration 40",81%
same,% inhibition Apol 40',"DRC-2, 40', concentration 80",67%
same,% inhibition ApPOL 90',"DRC-2, 90', concentration 2.5",15%
same,% inhibition ApPOL 90',"DRC-2, 90', concentration 2.5 (unit not given)",15%
same,% inhibition ApPOL 90',"DRC-2, 90', concentration 5",31%
same,% inhibition ApPOL 90',"DRC-2, 90', concentration 10",49%
same,% inhibition ApPOL 90',"DRC-2, 90', concentration 20",77%
same,% inhibition ApPOL 90',"DRC-2, 90', concentration 40",83%
same,% inhibition ApPOL 90',"DRC-2, 90', concentration 80",72%
same,% inhibition apPOL 180',"DRC-2, 180', concentration 2.5",11%
same,% inhibition apPOL 180',"DRC-2, 180', concentration 5",22%
same,% inhibition apPOL 180',"DRC-2, 180', concentration 10",41%
same,% inhibition apPOL 180',"DRC-2, 180', concentration 20",72%
same,% inhibition apPOL 180',"DRC-2, 180', concentration 40",82%
same,% inhibition apPOL 180',"DRC-2, 180', concentration 80",75%
same,DNA Pol,[4],43
same,DNA Pol,[5],43
Cc1ccc(NC(=O)C2CCN(C(=O)c3cc4ccsc4[nH]3)CC2)c(Br)c1 [Molecule 14],IC50,,6.6 µM
O=C(O)c1ccc(COc2cc([N+](=O)[O-])cc3cccnc23)cc1 [KU0058403],DNA Pol,'DNA Pol' of the 186 hits list (screen value),59
same,% inhibition Apo pol 10',"DRC-1, conc 2.5",14.3649%
same,% inhibition Apo pol 10',"DRC-1, conc 5",27.7405%
same,% inhibition Apo pol 10',"DRC-1, conc 10",42.2641%
same,% inhibition Apo pol 10',"DRC-1, conc 20",75.4082%
same,% inhibition Apo pol 10',"DRC-1, conc 40",92.5507%
same,% inhibition Apo pol 10',"DRC-1, conc 80",97.3906%
same,% inhibition Apol 90',"DRC-1, 90', conc 2.5",7.929%
same,% inhibition Apol 90',"DRC-1, 90', conc 5",14.8475%
same,% inhibition Apol 90',"DRC-1, 90', conc 10",27.7051%
same,% inhibition Apol 90',"DRC-1, 90', conc 20",56.1594%
same,% inhibition Apol 90',"DRC-1, 90', conc 40",83.537%
same,% inhibition Apol 90',"DRC-1, 90', conc 80",95.378%
same,% inhibition apPOL 180',"DRC-1, 180', conc 2.5",6.111%
same,% inhibition apPOL 180',"DRC-1, 180', conc 5",9.076%
same,% inhibition apPOL 180',"DRC-1, 180', conc 10",18.5156%
same,% inhibition apPOL 180',"DRC-1, 180', conc 20",39.8383%
same,% inhibition apPOL 180',"DRC-1, 180', conc 40",74.9259%
same,% inhibition apPOL 180',"DRC-1, 180', conc 80",94.2886%
same,% inhibition Apo pol 5',"DRC-2, 5', conc 2.5",17%
same,% inhibition Apo pol 5',"DRC-2, 5', conc 5",21%
same,% inhibition Apo pol 5',"DRC-2, 5', conc 10",31%
same,% inhibition Apo pol 5',"DRC-2, 5', conc 20",43%
same,% inhibition Apo pol 5',"DRC-2, 5', conc 40",55%
same,% inhibition Apo pol 5',"DRC-2, 5', conc 80",60%
same,% inhibition Apol 40',"DRC-2, 40', conc 2.5",10%
same,% inhibition Apol 40',"DRC-2, 40', conc 5",14%
same,% inhibition Apol 40',"DRC-2, 40', conc 10",23%
same,% inhibition Apol 40',"DRC-2, 40', conc 20",39%
same,% inhibition Apol 40',"DRC-2, 40', conc 40",59%
same,% inhibition Apol 40',"DRC-2, 40', conc 80",74%
same,% inhibition ApPOL 90',"DRC-2, 90', conc 2.5",7%
same,% inhibition ApPOL 90',"DRC-2, 90', conc 5",12%
same,% inhibition ApPOL 90',"DRC-2, 90', conc 10",19%
same,% inhibition ApPOL 90',"DRC-2, 90', conc 20",35%
same,% inhibition ApPOL 90',"DRC-2, 90', conc 40",57%
same,% inhibition ApPOL 90',"DRC-2, 90', conc 80",76%
same,% inhibition ApPOL 90',"DRC-2, 90', concentration 80",76%
same,% inhibition apPOL 180',"DRC-2, 180', conc 2.5",1.43%
same,% inhibition apPOL 180',"DRC-2, 180', conc 5",2.25%
same,% inhibition apPOL 180',"DRC-2, 180', conc 10",8.43%
same,% inhibition apPOL 180',"DRC-2, 180', conc 20",22%
same,% inhibition apPOL 180',"DRC-2, 180', conc 40",48%
same,% inhibition apPOL 180',"DRC-2, 180', conc 80",76%
same,% inhibition apPOL 180',"DRC-2, 180', concentration 80",76%
same,DNA Pol,"primary screen value, ""DNA Pol""",59
COCC(=O)Nc1c(-c2cccc(F)c2)nc2cc(C)ccn12 [Molecule 44],IC50,,11.1 µM
"CCOc1cccc2cc(C(=O)Nc3nnc(-c4ccno4)o3)oc12 [Molecule 28, CCOc1cccc2c1oc(c2)C(=O)Nc1nnc(o1)c1ccno1]",% inhibition Apo pol 10',"DRC-1, concentration 2.5",10.6274%
same,% inhibition Apo pol 10',"DRC-1, concentration 5",33.541%
same,% inhibition Apo pol 10',"DRC-1, concentration 10",66.1299%
same,% inhibition Apo pol 10',"DRC-1, concentration 20",85.0301%
same,% inhibition Apo pol 10',"DRC-1, concentration 40",91.7568%
same,% inhibition Apo pol 10',"DRC-1, concentration 80",93.7028%
same,% inhibition Apol 90',"DRC-1, 90', concentration 2.5",2.531%
same,% inhibition Apol 90',"DRC-1, 90', concentration 5",15.4654%
same,% inhibition Apol 90',"DRC-1, 90', concentration 10",41.5074%
same,% inhibition Apol 90',"DRC-1, 90', concentration 20",63.6828%
same,% inhibition Apol 90',"DRC-1, 90', concentration 40",78.9695%
same,% inhibition Apol 90',"DRC-1, 90', concentration 80",87.3573%
same,% inhibition apPOL 180',"DRC-1, 180', concentration 2.5",-1.99%
same,% inhibition apPOL 180',"DRC-1, 180', concentration 5",5.082%
same,% inhibition apPOL 180',"DRC-1, 180', concentration 10",24.8097%
same,% inhibition apPOL 180',"DRC-1, 180', concentration 20",44.8371%
same,% inhibition apPOL 180',"DRC-1, 180', concentration 40",65.9166%
same,% inhibition apPOL 180',"DRC-1, 180', concentration 80",81.0763%
same,% inhibition Apo pol 5',[1],45%
same,% inhibition Apo pol 5',[2],45%
same,% inhibition Apol 40',"DRC-2, 40', concentration 80 (unit not given)",66%
same,% inhibition ApPOL 90',[3],45%
same,% inhibition ApPOL 90',"DRC-2, 90', concentration 40 (unit not given)",66%
same,% inhibition Apo pol 5',"DRC-2, 5', concentration 2.5",16%
same,% inhibition Apo pol 5',"DRC-2, 5', concentration 5",28%
same,% inhibition Apo pol 5',"DRC-2, 5', concentration 10",46%
same,% inhibition Apo pol 5',"DRC-2, 5', concentration 20",45%
same,% inhibition Apo pol 5',"DRC-2, 5', concentration 40",45%
same,% inhibition Apo pol 5',"DRC-2, 5', concentration 80",39%
same,% inhibition Apol 40',"DRC-2, 40', concentration 2.5",14%
same,% inhibition Apol 40',"DRC-2, 40', concentration 5",24%
same,% inhibition Apol 40',"DRC-2, 40', concentration 10",50%
same,% inhibition Apol 40',"DRC-2, 40', concentration 20",57%
same,% inhibition Apol 40',"DRC-2, 40', concentration 40",64%
same,% inhibition Apol 40',"DRC-2, 40', concentration 80",66%
same,% inhibition ApPOL 90',"DRC-2, 90', concentration 2.5",11%
same,% inhibition ApPOL 90',"DRC-2, 90', concentration 5",20%
same,% inhibition ApPOL 90',"DRC-2, 90', concentration 10",45%
same,% inhibition ApPOL 90',"DRC-2, 90', concentration 20",56%
same,% inhibition ApPOL 90',"DRC-2, 90', concentration 40",66%
same,% inhibition ApPOL 90',"DRC-2, 90', concentration 80",70%
same,% inhibition apPOL 180',"DRC-2, 180', concentration 2.5",2%
same,% inhibition apPOL 180',"DRC-2, 180', concentration 5",5%
same,% inhibition apPOL 180',"DRC-2, 180', concentration 10",29%
same,% inhibition apPOL 180',"DRC-2, 180', concentration 20",44%
same,% inhibition apPOL 180',"DRC-2, 180', concentration 40",61%
same,% inhibition apPOL 180',"DRC-2, 180', concentration 80",72%
same,DNA Pol,[4],79
same,DNA Pol,[5],79
